The OligoGym collection
Bases are written 5' to 3'; sugars and linkages follow in the same order, as letters with counts (s phosphorothioate, o phosphodiester; PS: all linkages phosphorothioate). C may stand for cytosine or 5-methylcytosine; the collection does not tell. l = locked nucleic acid (LNA); d = 2'-deoxy (DNA)

What follows are sequences tested against HIF1A (assay: HeLa, 100 nM transfected, 24 h, mean of 3). Settings: ASO.

Sequence | caspase activation (% of PBS control)
TGGCAAGCATCCTGTA (sugars l1 d1 l1 d10 l3, PS) | 188
TGGCAAGCATCCTGTA (sugars l4 d7 l2 d2 l1, PS) | 528
GTTACTGCCTTCTTAC (sugars llldlddddddldlll, PS) | 273
TGGCAAGCATCCTGTA (sugars l1 d3 l1 d8 l3, PS) | 172
TGGCAAGCATCCT (sugars l3 d7 l3, PS) | 249
GCAAGCATCCTGT (sugars l1 d1 l2 d7 l2, PS) | 220
TGGCAAGCATCCTGTA (sugars lldldddddddldddl, PS) | 322
TGGCAAGCATCCTGTA (sugars l2 d9 l2 d1 l2, PS) | 401
TGGCAAGCATCCTGTA (sugars l1 d11 l1 d1 l2, PS) | 315
GTTACTGCCTTCT (sugars ldllddddddldl, PS) | 156
GCAAGCATCCTGT (sugars l2 d1 l1 d7 l2, PS) | 319
GGCAAGCATCCTG (sugars l3 d7 l1 d1 l1, PS) | 632
TGGCAAGCATCCTGTA (sugars l1 d10 l2 d2 l1, PS) | 346
GTTACTGCCTTCTTAC (sugars lddlldddddddlddl, PS) | 229
GTTACTGCCTTCTTAC (sugars lddlldddddddlldl, PS) | 374
TGGCAAGCATCCTGTA (sugars l2 d2 l1 d10 l1, PS) | 423
GTTACTGCCTTCTTAC (sugars ldlldddddddldlll, PS) | 195
TGGCAAGCATCCTGTA (sugars ldlllddddddldddl, PS) | 417
GTTACTGCCTTCTTAC (sugars ldlldddddddllddl, PS) | 255
GTTACTGCCTTCTTAC (sugars l2 d10 l1 d1 l2, PS) | 128
TGGCAAGCATCCTGTA (sugars ldldlddddddddddl, PS) | 204
GTTACTGCCTTCTTAC (sugars lllldddddddldldl, PS) | 281
GTTACTGCCTTCTTAC (sugars l4 d7 l3 d1 l1, PS) | 444
TGGCAAGCATCCTGTA (sugars ldllddddddddlldl, PS) | 412
GCAAGCATCCTGT (sugars l4 d7 l2, PS) | 352

Sequence | caspase activation (% of PBS control)
GTTACTGCCTTCT (sugars l2 d9 l2, PS) | 114
TACTGCCTTCTTA (sugars l1 d1 l1 d9 l1, PS) | 193
GCAAGCATCCTGT (sugars l1 d1 l1 d8 l2, PS) | 188
TACTGCCTTCTTA (sugars l1 d1 l2 d6 l3, PS) | 585
TGGCAAGCATCCTGTA (sugars lldllddddddlddll, PS) | 475
TGGCAAGCATCCTGTA (sugars llldlddddddllddl, PS) | 268
TGGCAAGCATCCTGTA (sugars ldllddddddddldll, PS) | 466
GTTACTGCCTTCT (sugars l1 d10 l2, PS) | 127
GTTACTGCCTTCTTAC (sugars llddldddddddldll, PS) | 218
GGCAAGCATCCTG (sugars l1 d9 l3, PS) | 468
GTTACTGCCTTCTTAC (sugars llddlddddddldddl, PS) | 191
GTTACTGCCTTCTTAC (sugars l4 d7 l5, PS) | 461
GTTACTGCCTTCTTAC (sugars lddldddddddllddl, PS) | 135
TGGCAAGCATCCTGTA (sugars l1 d12 l1 d1 l1, PS) | 150
GTTACTGCCTTCTTAC (sugars lldldddddddldddl, PS) | 155
TGGCAAGCATCCTGTA (sugars l2 d1 l1 d8 l4, PS) | 393
TGGCAAGCATCCTGTA (sugars lddlddddddddldll, PS) | 371
GTTACTGCCTTCTTAC (sugars ldddlddddddlldll, PS) | 165
GTTACTGCCTTCT (sugars lldlddddddldl, PS) | 105
TGGCAAGCATCCTGTA (sugars lddldddddddldddl, PS) | 173
ACTGCCTTCTTAC (sugars l1 d1 l2 d6 l3, PS) | 247
TTACTGCCTTCTT (sugars l1 d9 l3, PS) | 131
ACTGCCTTCTTAC (sugars l1 d1 l1 d8 l2, PS) | 191
TGGCAAGCATCCTGTA (sugars llldlddddddldlll, PS) | 428
ACTGCCTTCTTAC (sugars l1 d2 l1 d8 l1, PS) | 119
